Numbered stars: 1 amine (or outer) side, 2 acyl side, 3 side chain; on linkers, the order of the positions; unused ones are H or OH. Square brackets hold non-standard residues; d marks the D form. Peptide text beside a SMILES is read from it. X1 = [N-]=[N+]=NCCNCC[C@H](N[*:1])C(=O)[*:2]; Lys(N3) = [N-]=[N+]=NCCCC[C@H](N)C(=O)O
Tests used:
[1] = solubility in water by UV-vis spectroscopy before and after centrifugation; assay type: physicochemical; conditions: 20 mg/mL was the highest concentration tested
Description: Residue 1's ability to enhance solubility was tested via the amphiphilic peptide 16, which contains 7 copies of 1 along with 9 hydrophobic Val residues. Here, we directly measured solubility via UV-vis spectroscopy of aqueous preparations of peptides before and after centrifugation (FIG. 2B). Peptide 16 (FIG. 5) was fully soluble in water at 20 mg/mL, the highest concentration tested, as was its Lys-containing control peptide 18. […] Further, peptides 16 and 18 had nearly identical RP-HPLC chromatograms (FIG. 6) indicating similar hydrophilic character. In contrast, the ^N3K-containing peptide 17 was completely insoluble in water at only 1 mg/mL, showing extensive light scattering before centrifugation and no scattering after, due to sedimentation of aggregates.

[2] = solubility of peptide powder in solvents; assay type: physicochemical
Text: Peptide 17: Insoluble powder in water and acetonitrile. It is soluble in Trifluoroethanol.

[3] = SPAAC ligation kinetics with BCN, second order conditions, NMR; conditions: methanol at 25° C.
Description: The reaction kinetics of amino acid 1 in SPAAC with two strained cyclooctynes, DBCO and BCN, were determined in comparison with ^N3K. First, peptides 12 and 13, which contain residue 1 and ^N3K respectively, were independently ligated to PEG-functionalized DBCO. Rates were determined under pseudo-first order conditions by UV-vis spectroscopy at 308 nm (FIGS. 3A-3C, 7, 8). The calculated second order rate constant for peptide 12 was 0.34 M^−1 s^−1 in HBS buffer, pH 7.4 at 25° C., which is similar to previously reported rate constants for other azides. The ligation rate of peptide 12 is slightly slower than peptide 13 ([…]), which may be due to hydrophobic interactions between the ^N3K side-chain and the aromatic DBCO, facilitating ligation. […] We then determined the reaction rate of Boc-protected amino acid 2 itself with BCN in methanol at 25° C. […]
Solutions of BCN and amino acids were prepared in MeOD. The reaction between BCN and amino acids was measured under second order conditions using NMR. […] The reaction was monitored by ^1H NMR. Concentration of product ([P]) at each time point was determined by the integration of red proton in the product using blue proton as internal standard. The value of k2t was calculated by equation 1. With Prism software, second order rate constants, k2, was calculated by linear regression between k2t and time. […]

[4] = intrinsic hydrophilicity/hydrophobicity coefficient ΔtR(Gly) by RP-HPLC (procedure of Hodges et al.); assay type: physicochemical; conditions: RP-HPLC retention of guest-residue peptide versus Gly standard; positive = more hydrophobic than Gly
Description: We then determined the intrinsic hydrophilicity/hydrophobicity coefficients (ΔtR(Gly)) for residue 1, ^N3K, and Lys according to the procedure of Hodges et al. to gain comparative insight into the hydrophilic nature of the new residue. […] Amino acids with side-chains more hydrophobic than Gly have positive ΔtR(Gly) values, and vice-versa.
RP-HPLC was performed with a solvent system of 0.1% TFA in Milli-Q H2O (Standard A) and 0.1% TFA in 9:1 CH3CN/H2O (Standard B). Analytical RPHPLC was performed on an Agilent 1200 series HPLC, using a Vydac 218TP C18 column (250×4.6 mm, 5 μm), with a linear gradient from 0 to 100% B at a rate of 1% B per min, at a flow rate of 0.25 mL/min and a column temperature of 40° C.

solubility [1] [mg/mL]	intrinsic hydrophilicity/hydrophobicity coefficient ΔtR(Gly) [4]	SMILES	other results
≥ 20		CC(C)[C@H](N)C(=O)N[C@@H](CCNCCN=[N+]=[N-])C(=O)N[C@H](C(=O)N[C@@H](CCNCCN=[N+]=[N-])C(=O)N[C@H](C(=O)N[C@@H](CCNCCN=[N+]=[N-])C(=O)N[C@H](C(=O)N[C@@H](CCNCCN=[N+]=[N-])C(=O)N[C@H](C(=O)N1CCC[C@@H]1C(=O)N1CCC[C@H]1C(=O)N[C@H](C(=O)N[C@@H](CCNCCN=[N+]=[N-])C(=O)N[C@H](C(=O)N[C@@H](CCC(=O)O)C(=O)N[C@H](C(=O)N[C@@H](CCNCCN=[N+]=[N-])C(=O)N[C@H](C(=O)N[C@@H](CCNCCN=[N+]=[N-])C(=O)N[C@H](C(N)=O)C(C)C)C(C)C)C(C)C)C(C)C)[C@@H](C)O)C(C)C)C(C)C)C(C)C)C(C)C [peptide 16, VZVZVZVZV^DPPTZVEVZVZV-NH2] (H-V[X1]V[X1]V[X1]V[X1]V[dP]PT[X1]VEV[X1]V[X1]V-NH2)	
< 1		CC(C)[C@H](N)C(=O)N[C@@H](CCCCN=[N+]=[N-])C(=O)N[C@H](C(=O)N[C@@H](CCCCN=[N+]=[N-])C(=O)N[C@H](C(=O)N[C@@H](CCCCN=[N+]=[N-])C(=O)N[C@H](C(=O)N[C@@H](CCCCN=[N+]=[N-])C(=O)N[C@H](C(=O)N1CCC[C@@H]1C(=O)N1CCC[C@H]1C(=O)N[C@H](C(=O)N[C@@H](CCCCN=[N+]=[N-])C(=O)N[C@H](C(=O)N[C@@H](CCC(=O)O)C(=O)N[C@H](C(=O)N[C@@H](CCCCN=[N+]=[N-])C(=O)N[C@H](C(=O)N[C@@H](CCCCN=[N+]=[N-])C(=O)N[C@H](C(N)=O)C(C)C)C(C)C)C(C)C)C(C)C)[C@@H](C)O)C(C)C)C(C)C)C(C)C)C(C)C [peptide 17] (H-V[Lys(N3)]V[Lys(N3)]V[Lys(N3)]V[Lys(N3)]V[dP]PT[Lys(N3)]VEV[Lys(N3)]V[Lys(N3)]V-NH2)	solubility in Trifluoroethanol [2]: soluble; solubility in water and acetonitrile [2]: Insoluble
		CC(C)(C)OC(=O)N(CCN=[N+]=[N-])CC[C@H](NC(=O)OCC1c2ccccc2-c2ccccc21)C(=O)O [compound 2, (S)-2-((((9H-fluoren-9-yl)methoxy)carbonyl)amino)-4-((2-azidoethyl)(tertbutoxycarbonyl)-amino)butanoic acid]	second order rate constant k2 with BCN [3]: 0.28 M⁻¹ s⁻¹
	1.4	[N-]=[N+]=NCCNCC[C@H](N)C(=O)O [compound 1]	
	−0.04	NCCCC[C@H](N)C(=O)O [Lys]	
≥ 20		CC(C)[C@H](N)C(=O)N[C@@H](CCCCN)C(=O)N[C@H](C(=O)N[C@@H](CCCCN)C(=O)N[C@H](C(=O)N[C@@H](CCCCN)C(=O)N[C@H](C(=O)N[C@@H](CCCCN)C(=O)N[C@H](C(=O)N1CCC[C@@H]1C(=O)N1CCC[C@H]1C(=O)N[C@H](C(=O)N[C@@H](CCCCN)C(=O)N[C@H](C(=O)N[C@@H](CCC(=O)O)C(=O)N[C@H](C(=O)N[C@@H](CCCCN)C(=O)N[C@H](C(=O)N[C@@H](CCCCN)C(=O)N[C@H](C(N)=O)C(C)C)C(C)C)C(C)C)C(C)C)[C@@H](C)O)C(C)C)C(C)C)C(C)C)C(C)C [peptide 18] (H-VKVKVKVKV[dP]PTKVEVKVKV-NH2; N-terminus assumed)	

From patent US20250002535A1, “PEPTIDE HYDROGEL COMPRISING HYDROPHILIC AZIDE-CONTAINING AMINO ACID AND ITS USE” (The United States of America, as represented by the …, priority 2023, published 2025)
